Experiments:
[1] = test system: JAK2V617F HUVECs; experiment: In vitro static adhesion on endothelial cells; type: cell-based, human; settings: HUVECs pretreated 24 hours with hydroxyurea 100 μM
Procedure: Cell culture/Lentivirus transduction. Human umbilical venous endothelial cells (HUVECs, Lonza, Basel, Swiss) were cultured in EGM-2 media (Lonza, CC-3156) supplemented with EGM-2 Single Quots (Lonza, CC-4176). Cells were transduced with GFP lentivirus encoding human JAK2V617F or JAK2WT by adding lentiviral supernatant to the medium and incubating overnight at 37° C. An empty lentivirus encoding only for GFP was used as a negative control. Lentivirus were transduced at a multiplicity of infection of 20, allowing more than 95% of GFP positive cells. Transgene stability was verified after each passage and remaining stable throughout the passages. HUVECs were used for experiments between passage 5 and passage 7.
In vitro static adhesion on endothelial cells. Blood samples were performed from well healthy voluntary witnesses. Blood was diluted with PBS (1/2 dilution) and deposed on lymphocyte separation medium (Pancoll, Dominique Dutscher, Brumath, France) before centrifugation at 450 g during 20 minutes to obtain mononuclear cells (MNC). […] We visualized adherent cells using a fluorescent microscope (AxioObserver, Zeiss, Oberkochen, Germany) and analysed images by ZEN imaging software (Zeiss). Well surface was quantified in order to obtain the following ratio: number of adherent cells/mm2. […]

[2] = test system: JAK2V617F HUVECs; experiment: Quantification of VWF in HUVEC supernatant; type: cell-based, human; settings: 24 hours with 100 μM hydroxyurea
Procedure: Quantification of VWF in HUVEC supernatant and in HUVECs. HUVEC cell were seeded in 12 wells plate (Costar). When they were confluent, they were washed with 500 μL of PBS (Gibco ThermoFisher Scientific) before adding 500 μL of medium not deprived. Experiments were performed in absence or in presence of TNF-alpha (10 ng/ml during 24 hours) (Merck Millipore). After 24 hours, supernatant was removed, centrifuged at 12000 g during 5 minutes and stored at −80° C. To quantify vWF in HUVECs, cells were washed with PBS before adding in wells 500 μL of PBS. Cells were destroyed in wells with scrapper. Liquid was removed and 5 freezing and thawing successions were performed. Finally, the intracellular lysates were centrifuged at 12000 g during 5 minutes and stored at −80° C. As previously published^45, vWF was quantified following this method: […] plate (Greiner, Flat Bottom) were coated with an anti-vWF antibody (DAKO, Les Ulis, France, A0082) diluted at 1/660 in a coating buffer overnight at 4° C. After washing and blocking, sample of HUVEC supernatant and intracellular lysate were put in wells. Standards were realized with a platelet poor plasma from a healthy donor. […] After 2 minutes of coloration, the reaction was blocked with a H2SO4 3M solution and reading was performed at 492 nm with OPTIMA plate reader. […]

[3] = test system: sickle cell mice; settings: TNF-alpha treated sickle cell mice; cited from earlier work
[4] = test system: Pdgfb-iCreERT2;JAK2^V617F/WT mice; experiment: Intravital microscopy of mesenteric venules (leukocyte rolling and adhesion); type: in vivo; settings: HU 200 mg/kg/day oral gavage 10 days, low dose TNF-alpha
From the text: (§1) Generation and characterization of Pdgfb-iCreERT2;JAK2^V617F/WT mice. The conditional flexed JAK2 (JAK2V617F/WT) mice were generously provided by J. L Villeval and have been previously described^19. The double-heterozygous Pdgfb-iCreERT2;JAK2^V617F/WT mice were generated by crossing JAK2^V617F/WT mice with Pdgfb-iCreERT2 mice allowing tamoxifen-inducible adult expression of JAK2^V617F in endothelium. Littermate Pdgfb-iCreERT2-negative;JAK2^V617F/WT mice were used as controls. To induce Cre activity in Pdgfb-iCreERT2;JAK2^V617F/WT mice, we used oral gavage of a single dose of 8 mg of tamoxifen. Tamoxifen induction was performed in 5 weeks-old animals. Mutant mice were analysed 2-3 weeks after tamoxifen administration. Ears of adult mice were genotyped by PCR. Haematocrit, hemoglobin level, platelet, and white cells count were determined using an automated counter (scil Vet abc Plus+) on blood collected from the sublingual vein in EDTA containing tubes. […]
Video analysis. Rolling leukocytes were quantitated by counting the number of rhodamin-marked cells passing a given plane perpendicular to the vessel axis in 30 seconds. Adherent leukocytes were quantitated by counting the number of rhodamin-marked cells motionless during 30 seconds. Vessel surface was quantitated to perform the following ratio: adherent cells/vessel surface (number of cells/cm2). […]

[5] = test system: Pdgfb-iCreERT2;JAK2^V617F/WT mice; experiment: Mouse model of thrombus formation (low dose TNF-alpha induced lung thrombus formation); type: in vivo; settings: HU 200 mg/kg/day oral gavage 10 days
From the text: as §1
Histology. To quantify thrombus formation in mice, Carstair's staining was performed. […] Thrombus quantification was performed using an optical microscope and pulmonary area was quantitated to perform the following ratio: thrombi number/pulmonary area (number of thrombi/cm2). Three slides by mice were analysed by two independent observers, blindly. […]

[6] = target: T1, P-selectin (Homo sapiens, UniProt P16109); settings: clinical trial, patients; cited from earlier work
T1 construct: host or cells: sickle cell disease patients (cited clinical trial)
T1 sequence (P16109 42-830): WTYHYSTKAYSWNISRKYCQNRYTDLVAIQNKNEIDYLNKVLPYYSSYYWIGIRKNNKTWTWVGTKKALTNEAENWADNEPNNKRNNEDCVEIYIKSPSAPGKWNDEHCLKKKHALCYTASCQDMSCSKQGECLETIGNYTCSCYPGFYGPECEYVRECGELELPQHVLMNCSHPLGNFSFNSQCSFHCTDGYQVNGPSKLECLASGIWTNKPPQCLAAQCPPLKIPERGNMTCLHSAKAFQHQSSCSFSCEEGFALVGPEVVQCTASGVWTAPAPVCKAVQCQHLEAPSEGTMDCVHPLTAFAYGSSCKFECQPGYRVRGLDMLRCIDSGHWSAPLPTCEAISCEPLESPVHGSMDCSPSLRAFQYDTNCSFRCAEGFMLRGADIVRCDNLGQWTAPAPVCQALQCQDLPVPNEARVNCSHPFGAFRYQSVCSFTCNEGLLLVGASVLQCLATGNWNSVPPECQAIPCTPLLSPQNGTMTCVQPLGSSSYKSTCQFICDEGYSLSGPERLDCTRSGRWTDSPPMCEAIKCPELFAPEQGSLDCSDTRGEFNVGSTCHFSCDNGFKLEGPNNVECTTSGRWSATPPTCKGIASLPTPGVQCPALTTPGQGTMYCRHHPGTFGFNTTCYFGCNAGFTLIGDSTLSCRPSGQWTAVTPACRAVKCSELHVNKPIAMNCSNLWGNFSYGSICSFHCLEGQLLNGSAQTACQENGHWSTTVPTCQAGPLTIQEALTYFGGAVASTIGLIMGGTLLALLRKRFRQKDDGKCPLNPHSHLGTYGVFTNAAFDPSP

Molecule: NC(=O)NO [hydroxyurea]
- neutrophil adhesion on JAK2V617F HUVECs [1]: significant reduction
- vWF concentrations in the supernatant of JAK2V617F HUVECs [2]: decreased
- leukocyte rolling in the microvasculature [3]: reduction
- leukocyte adhesion [4]: reduction
- leukocyte rolling [4]: reduction
- thrombus formation in lungs [5]: significant inhibition

B1: crizanlizumab: anti-P-selectin antibody, SEG101 also named crizanlizumab (antibody, chains of the INN, looked up, V domains shown)
VH: QVQLVQSGAEVKKPGASVKVSCKVSGYTFTSYDINWVRQAPGKGLEWMGWIYPGDGSIKYNEKFKGRVTMTVDKSTDTAYMELSSLRSEDTAVYYCARRGEYGNYEGAMDYWGQGTLVTVSS
VL: DIQMTQSPSSLSASVGDRVTITCKASQSVDYDGHSYMNWYQQKPGKAPKLLIYAASNLESGVPSRFSGSGSGTDFTLTISSLQPEDFATYYCQQSDENPLTFGGGTKVEIK
- pain crises in sickle cell disease [6]: efficiently prevented
